Organism: Rattus norvegicus
Assay: Open TG-GATES - Regimen: Single
Assay type: toxicity, organism-based, Sprague-Dawley
Design: regimen Single, gender Male, age 6 weeks
Details: in vivo, iv, route intravenous injection; for KIDNEY_L / KIDNEY_R / KIDNEY_TOTAL: tissue Kidney; for LIVER: tissue Liver; for ALP / ALT / BUN / CRE / DBIL / GLC / IP / K / LDH / PL / RALB / TBIL / TC / TG / TP / gamma-GTP / AST / Na: tissue Plasma
[1] = 30 mg/kg, 3 h, tissue Blood, dose level Middle
[2] = 30 mg/kg, 3 h, dose level Middle
[3] = 30 mg/kg, 6 h, tissue Blood, dose level Middle
[4] = 30 mg/kg, 6 h, dose level Middle
[5] = 30 mg/kg, 9 h, dose level Middle
[6] = 30 mg/kg, 9 h, tissue Blood, dose level Middle
[7] = 30 mg/kg, 24 h, dose level Middle
[8] = 30 mg/kg, 24 h, tissue Blood, dose level Middle
[9] = 100 mg/kg, 3 h, tissue Blood, dose level High
[10] = 100 mg/kg, 3 h, dose level High
[11] = 100 mg/kg, 6 h, dose level High
[12] = 100 mg/kg, 6 h, tissue Blood, dose level High
[13] = 100 mg/kg, 9 h, dose level High
[14] = 100 mg/kg, 9 h, tissue Blood, dose level High
[15] = 100 mg/kg, 24 h, dose level High
[16] = 100 mg/kg, 24 h, tissue Blood, dose level High

CARBOPLATIN
APTT [1]: 23.3 s
Bas [1]: 0%
Eos [1]: 1%
Fbg [1]: 273.2 mg/dL
Hb [1]: 13 g/dL
Ht [1]: 40.3%
Lym [1]: 81.8%
MCV [1]: 63.6 fL
Mono [1]: 2.4%
PT [1]: 15.6 s
Plat [1]: 123.8 x10_4/uL
RBC [1]: 633.4 x10_4/ul
Ret [1]: 5.6%
WBC [1]: 77.3 x10_2/uL
KIDNEY_L [2]: 0.9 g
KIDNEY_R [2]: 0.9 g
KIDNEY_TOTAL [2]: 1.9 g
LIVER [2]: 9.5 g
ALP [2]: 1595 IU/L
ALT [2]: 41.4 IU/L
BUN [2]: 11 mg/dL
CRE [2]: 0.2 mg/dL
DBIL [2]: 0 mg/dL
GLC [2]: 175 mg/dL
IP [2]: 8.6 mg/dL
K [2]: 4 meq/L
LDH [2]: 183.4 IU/L
PL [2]: 126.6 mg/dL
RALB [2]: 3 g/dL
TBIL [2]: 0.014 mg/dL
TC [2]: 67 mg/dL
TG [2]: 75 mg/dL
TP [2]: 5.4 g/dL
gamma-GTP [2]: 1.2 IU/L
APTT [3]: 22.6 s
Bas [3]: 0%
Eos [3]: 0.8%
Fbg [3]: 273.4 mg/dL
Hb [3]: 12.8 g/dL
Ht [3]: 39.7%
Lym [3]: 77.4%
MCHC [3]: 32.2%
MCV [3]: 63.8 fL
Mono [3]: 4%
Neu [3]: 16.6%
PT [3]: 15.9 s
Plat [3]: 120 x10_4/uL
RBC [3]: 623.2 x10_4/ul
Ret [3]: 6.3%
WBC [3]: 102.3 x10_2/uL
KIDNEY_L [4]: 0.9 g
KIDNEY_R [4]: 0.9 g
KIDNEY_TOTAL [4]: 1.8 g
LIVER [4]: 8.7 g
ALP [4]: 1276.8 IU/L
ALT [4]: 42 IU/L
AST [4]: 77.8 IU/L
CRE [4]: 0.2 mg/dL
DBIL [4]: 0 mg/dL
GLC [4]: 174.6 mg/dL
IP [4]: 9.6 mg/dL
K [4]: 4.4 meq/L
Na [4]: 139.4 meq/L
PL [4]: 126 mg/dL
RALB [4]: 2.9 g/dL
TBIL [4]: 0.012 mg/dL
TC [4]: 73.4 mg/dL
TG [4]: 68.6 mg/dL
TP [4]: 5.3 g/dL
gamma-GTP [4]: 1 IU/L
TERMINAL_BW [5]: 197.2 g
APTT [6]: 24.3 s
Bas [6]: 0%
Eos [6]: 0.6%
Fbg [6]: 280.2 mg/dL
Hb [6]: 12.8 g/dL
Ht [6]: 39.6%
Lym [6]: 72.2%
MCHC [6]: 32.4%
MCV [6]: 62 fL
Mono [6]: 2.4%
Neu [6]: 24%
PT [6]: 15.9 s
Plat [6]: 119 x10_4/uL
RBC [6]: 638.6 x10_4/ul
Ret [6]: 5.9%
WBC [6]: 68.8 x10_2/uL
KIDNEY_L [5]: 0.9 g
KIDNEY_R [5]: 1 g
KIDNEY_TOTAL [5]: 1.9 g
LIVER [5]: 7.9 g
ALP [5]: 1295.4 IU/L
ALT [5]: 38.8 IU/L
AST [5]: 81 IU/L
BUN [5]: 10 mg/dL
CRE [5]: 0.1 mg/dL
DBIL [5]: 0 mg/dL
GLC [5]: 173.6 mg/dL
IP [5]: 9.7 mg/dL
K [5]: 4.3 meq/L
LDH [5]: 182.2 IU/L
Na [5]: 139.6 meq/L
PL [5]: 118.8 mg/dL
RALB [5]: 2.9 g/dL
TBIL [5]: 0.014 mg/dL
TC [5]: 63 mg/dL
TG [5]: 55 mg/dL
TP [5]: 5.4 g/dL
gamma-GTP [5]: 1.2 IU/L
TERMINAL_BW [7]: 208.3 g
APTT [8]: 23 s
Bas [8]: 0%
Eos [8]: 0.8%
Fbg [8]: 295.6 mg/dL
Hb [8]: 12.9 g/dL
Ht [8]: 39.9%
Lym [8]: 88.4%
MCHC [8]: 32.2%
Mono [8]: 3.4%
Neu [8]: 6.6%
PT [8]: 16.1 s
Plat [8]: 125 x10_4/uL
RBC [8]: 639.8 x10_4/ul
Ret [8]: 4.5%
WBC [8]: 72.2 x10_2/uL
KIDNEY_L [7]: 0.9 g
KIDNEY_R [7]: 1 g
KIDNEY_TOTAL [7]: 1.9 g
LIVER [7]: 9.3 g
ALP [7]: 1504.2 IU/L
ALT [7]: 44.8 IU/L
AST [7]: 72.8 IU/L
CRE [7]: 0.2 mg/dL
DBIL [7]: 0.002 mg/dL
GLC [7]: 179.6 mg/dL
IP [7]: 8.1 mg/dL
K [7]: 4.3 meq/L
LDH [7]: 211.2 IU/L
Na [7]: 139.8 meq/L
PL [7]: 126.6 mg/dL
RALB [7]: 3 g/dL
TBIL [7]: 0.02 mg/dL
TC [7]: 70.4 mg/dL
TG [7]: 60.4 mg/dL
TP [7]: 5.5 g/dL
gamma-GTP [7]: 1.2 IU/L
APTT [9]: 22.8 s
Bas [9]: 0%
Eos [9]: 0.6%
Fbg [9]: 275 mg/dL
MCHC [9]: 32.4%
MCV [9]: 64.2 fL
Mono [9]: 2.8%
Neu [9]: 17.2%
PT [9]: 15.7 s
Plat [9]: 123.5 x10_4/uL
RBC [9]: 630.8 x10_4/ul
Ret [9]: 6.4%
WBC [9]: 81.4 x10_2/uL
KIDNEY_L [10]: 0.9 g
KIDNEY_R [10]: 0.9 g
KIDNEY_TOTAL [10]: 1.9 g
LIVER [10]: 9.2 g
ALP [10]: 1630.8 IU/L
ALT [10]: 45 IU/L
BUN [10]: 12 mg/dL
CRE [10]: 0.2 mg/dL
DBIL [10]: 0 mg/dL
GLC [10]: 170.6 mg/dL
IP [10]: 9.1 mg/dL
K [10]: 4.2 meq/L
LDH [10]: 173.8 IU/L
PL [10]: 129 mg/dL
RALB [10]: 3 g/dL
TBIL [10]: 0.014 mg/dL
TC [10]: 69.8 mg/dL
TG [10]: 70.8 mg/dL
TP [10]: 5.3 g/dL
gamma-GTP [10]: 1.2 IU/L
TERMINAL_BW [11]: 200.2 g
APTT [12]: 24.4 s
Bas [12]: 0%
Eos [12]: 0.8%
Fbg [12]: 286.8 mg/dL
Ht [12]: 41.1%
Lym [12]: 76%
MCH [12]: 20 pg
MCHC [12]: 32.2%
MCV [12]: 62.2 fL
Mono [12]: 6.4%
Plat [12]: 125.8 x10_4/uL
RBC [12]: 663.8 x10_4/ul
Ret [12]: 5.2%
WBC [12]: 91 x10_2/uL
KIDNEY_L [11]: 1 g
KIDNEY_R [11]: 1 g
KIDNEY_TOTAL [11]: 1.9 g
LIVER [11]: 8.2 g
ALP [11]: 1531.2 IU/L
ALT [11]: 40.4 IU/L
AST [11]: 84.4 IU/L
BUN [11]: 10.8 mg/dL
CRE [11]: 0.2 mg/dL
DBIL [11]: 0 mg/dL
GLC [11]: 176.6 mg/dL
IP [11]: 9.5 mg/dL
K [11]: 4.2 meq/L
LDH [11]: 177.8 IU/L
Na [11]: 140 meq/L
PL [11]: 109.6 mg/dL
RALB [11]: 2.9 g/dL
TBIL [11]: 0.02 mg/dL
TC [11]: 61.8 mg/dL
TG [11]: 37.4 mg/dL
TP [11]: 5.3 g/dL
gamma-GTP [11]: 1.2 IU/L
TERMINAL_BW [13]: 204.6 g
APTT [14]: 24.9 s
Bas [14]: 0%
Eos [14]: 0.8%
Fbg [14]: 299.4 mg/dL
Ht [14]: 40.5%
Lym [14]: 73.8%
MCHC [14]: 32.4%
MCV [14]: 62.8 fL
Mono [14]: 3.4%
Neu [14]: 21.2%
PT [14]: 15.9 s
Plat [14]: 136.6 x10_4/uL
RBC [14]: 645.2 x10_4/ul
Ret [14]: 6.1%
WBC [14]: 69 x10_2/uL
KIDNEY_L [13]: 0.9 g
KIDNEY_R [13]: 1 g
KIDNEY_TOTAL [13]: 1.9 g
LIVER [13]: 8.4 g
ALP [13]: 1146.6 IU/L
ALT [13]: 34.4 IU/L
AST [13]: 72.8 IU/L
CRE [13]: 0.2 mg/dL
DBIL [13]: 0 mg/dL
GLC [13]: 174.8 mg/dL
IP [13]: 9.9 mg/dL
K [13]: 4.5 meq/L
LDH [13]: 172.4 IU/L
Na [13]: 139.4 meq/L
RALB [13]: 2.9 g/dL
TBIL [13]: 0.022 mg/dL
TC [13]: 69.2 mg/dL
TG [13]: 54.4 mg/dL
TP [13]: 5.2 g/dL
gamma-GTP [13]: 1.6 IU/L
TERMINAL_BW [15]: 203.7 g
APTT [16]: 23.6 s
Bas [16]: 0%
Eos [16]: 0.2%
Fbg [16]: 306.2 mg/dL
Hb [16]: 12.9 g/dL
Ht [16]: 40.2%
Lym [16]: 82.6%
MCHC [16]: 32.2%
Mono [16]: 4%
Neu [16]: 12%
PT [16]: 16.2 s
Plat [16]: 123.1 x10_4/uL
RBC [16]: 641.4 x10_4/ul
Ret [16]: 2.7%
WBC [16]: 69.6 x10_2/uL
KIDNEY_L [15]: 0.9 g
KIDNEY_R [15]: 1 g
KIDNEY_TOTAL [15]: 1.9 g
LIVER [15]: 8.8 g
ALP [15]: 1486.6 IU/L
ALT [15]: 41.2 IU/L
AST [15]: 76.8 IU/L
CRE [15]: 0.2 mg/dL
DBIL [15]: 0.002 mg/dL
GLC [15]: 179.2 mg/dL
IP [15]: 8.4 mg/dL
K [15]: 4.3 meq/L
LDH [15]: 176.8 IU/L
PL [15]: 135.6 mg/dL
RALB [15]: 3.1 g/dL
TBIL [15]: 0.022 mg/dL
TC [15]: 78.6 mg/dL
TG [15]: 51.2 mg/dL
TP [15]: 5.6 g/dL
gamma-GTP [15]: 1.2 IU/L
